Legend:
[1] = tested on: Bacillus subtillis ATCC 6633; test: Anti-bacterial activity, agar diffusion method; assay type: cell-based, Bacillus subtilis; conditions: at the concentration of 1 mg/ml
Protocol: In an embodiment, anti-bacterial activity of the compounds now disclosed was determined according to CLSI guidelines. The following bacteria were used: reference strains E. coli ATCC 10536, Staphylococcus aureus ATCC 6538, Bacillus subtilis ATCC 6633 and Enterococcus faecalis ATCC 29212; clinical strains of E. coli and Pseudomonas aeruginosa isolated in our laboratory; and strains of Lactobacillus rhamnosus and Lactobacillus plantarum also isolated in our laboratory. The Minimum Inhibitory Concentration (MIC) was determined by the agar diffusion method, in plates of Mueller-Hinton agar or Rogosa agar (for Lactobacilli). Briefly, 10^8 cfu/ml bacterial suspensions were prepared in sterile water and spread in the culture media. Sterile disks containing different concentrations of P3 were placed on the inoculated surface. Plates were incubated at 37° C. for 24 h or 48 h. Lactobacilli were incubated at microaerophilic conditions. A negative control made of sterile water was used. Disks of amoxicillin and imipenem were used as positive controls.

[2] = tested on: P. berghei liver stages; test: In vitro activity against the liver stage of Plasmodium infection (luciferase assay in Huh7 cells); assay type: cell-based, Plasmodium berghei; conditions: for anti-Plasmodium activity (in words): P. berghei liver stages in Huh7 cells
Protocol: FIG. 6: Compound activity against P. berghei liver stages. Anti-Plasmodial activity (infection axis, bars) and toxicity to hepatoma cells (cell confluency axis, circles) are shown. Infection loads of Huh7 cells, a human hepatoma cell line, were determined by bioluminescence measurements of cell lysates 48 h after infection with luciferase-expressing P. berghei parasites. Luciferase assay in 96 well-plate; 10 000 Huh7 cells/well+10 000 PbA-LuciGFPcon spz/well.
In an embodiment, the in vitro activity against the liver stage of Plasmodium infection was also carried out: inhibition of liver stage Plasmodium infection by test compounds was determined by measuring the luminescence intensity in Huh-7 cells infected with a firefly luciferase-expressing P. berghei line, as previously described. Briefly, Huh-7 cells, a human hepatoma cell line, were cultured in 1640 RPMI medium supplemented with 10% v/v fetal bovine serum, 1% v/v nonessential amino acids, 1% v/v penicillin/streptomycin, 1% v/v glutamine, and 10 mM 4-(2-hydroxyethyl)-1-piperazineethanesulfonic acid (HEPES), pH 7, and maintained at 37° C. with 5% CO2. For infection assays, Huh-7 cells (1.0×10^4 per well) were seeded in 96-well plates the day before drug treatment and infection. The medium was replaced by medium containing the appropriate concentration of each compound approximately 1 h prior to infection with sporozoites freshly obtained through disruption of salivary glands of infected female Anopheles stephensi mosquitoes. Sporozoite addition was followed by centrifugation at 1700×g for 5 min. Parasite infection load was measured 48 h after infection by a bioluminescence assay (Biotium). The effect of the compounds on the viability of Huh-7 cells was assessed by the AlamarBlue assay (Invitrogen, U.K.) using the manufacturer's protocol.

[3] = tested on: HIV; test: Anti-HIV activity evaluation (HIV type not specified); assay type: cell-based; conditions: both CCR-tropic isolates and CXCR4-tropic isolates; concentration of 15.2 μM
Protocol: In an embodiment, TZM-bl cells (AIDS Research and Reference Reagent Program, National Institutes of Health, USA) were cultured in complete growth medium that consists of Dulbecco's minimal essential medium (DMEM) supplemented with 10% fetal bovine serum (FBS), 100 U/ml of penicillin-streptomycin (Gibco/Invitrogen, USA), 1 mM of sodium pyruvate (Gibco/Invitrogen, USA), 2 mM of L-glutamine (Gibco/Invitrogen, USA) and 1 mM of non-essential amino acids (Gibco/Invitrogen, USA).
In an embodiment, the primary isolates 93AOHDC249, 93AOHDC250, 01PTHDECJN and 03PTHCC9, used in this study were previously isolated, titrated and characterized for co-receptor usage. HIV reference strain SG3.1 was obtained by transfection of HEK293T cells with pSG3.1 (HIV-1) plasmid using Fugene 6 reagent (Roche, Switzerland) according to manufacturer's instructions.
In an embodiment, the 50% tissue culture infectious dose (TCID50) of the virus was determined in a single-round viral infectivity assay using a luciferase reporter gene assay in TZM-bl cells and calculated using the statistical method of Reed and Muench^27.
In an embodiment, the antiviral activity of the compounds was determined in a single-round assay with TZM-bl cells as previously described ^26. […] After 48 h of infection, luciferase expression was quantified with the One-Glow luciferase assay substrate reagent (Promega, USA) according to manufacturer's instructions. […] After an incubation of 3 minutes at room temperature to allow complete cell lysis luminescence was measured in Tecan Infinite M200. Background luminescence was measured by using control wells that contained only target cells and GM. […]
In an embodiment, dose-response curves were estimated from the percentage of inhibition of infection (y-axis) against logo of concentration of each compound (x-axis) using the sigmoidal dose-response equation (variable slope) in GraphPad Prism version 5.00 for Windows (GraphPad Software, San Diego Calif. USA, www.graphpad.com). IC50 and IC90 values were determined from this curve. […]

Structure (SMILES)	inhibitory activity [1]	anti-Plasmodium activity (in words) [2]	inhibition of the replication [3]	IC50 ([2]; luciferase-expressing P. berghei in Huh7 cells, 48 h after infection) [nM]
COC(=O)C1=C[C@@]2(N=N1)C(=O)N1[C@@H](C(=O)O)C(C)(C)S[C@@H]12 [BSS-593, (2,3′R,5R)-5′-(methoxycarbonyl)-3,3-dimethyl-7-oxo-4-thia-1-azaspiro[bicyclo[3.2.0]heptane-6,3′-pyrazole]-2-carboxylic acid]	no inhibitory activity	presented activity	–	–
CC1(C)S[C@H]2N(C(=O)[C@]23CC=C(C(=O)OCc2ccccc2)[C@@H]3C(=O)c2ccccc2)[C@H]1C(=O)OC(c1ccccc1)c1ccccc1 [BSS-730A]	no inhibitory activity	presented activity	about 100%	550

From patent US11666559B2, “Spiro-lactam compounds, process and uses thereof” (UNIVERSIDADE DE COIMBRA, priority 2017, dated 2023)
